The values that follow come from US20230346827A1 (priority 2020, published 2023).

Test [1] has as its system HUVEC + (IL-1β, TNFα and IFNy). Nature of the test: BioMAP 3C system. The class given is cell-based, human. The note with it: annotated relative to vehicle controls. The source says:
Cell types and stimuli used in each system are as follows: 3C system [HUVEC + (IL-1β, TNFα and IFNy)], 4H system [HUVEC + (IL-4 and histamine)], LPS system [PBMC and HUVEC + LPS (TLR4 ligand)], SAg system [PBMC and HUVEC + TCR ligands], BT system [CD19+ B cells and PBMC + (α-IgM and TCR ligands)], BF4T system [bronchial epithelial cells and HDFn + (TNFα and IL-4)], BE3C system [bronchial epithelial cells + (IL-1β, TNFα and IFNy)], CASM3C system [coronary artery smooth muscle cells + (IL-1 β, TNFα and IFNy)], HDF3CGF system [HDFn + (IL-1β, TNFα, IFNy, EGF, bFGF and PDGF-BB)], KF3CT system [keratinocytes and HDFn + (IL-1β, TNFα, IFNy and TGFβ)], MyoF system [differentiated lung myofibroblasts + (TNFα and TGFβ)] and Mphg system [HUVEC and M1 macrophages + Zymosan (TLR2 ligand)].
Systems are derived from either single cell types or co-culture systems. Adherent cell types are cultured in 96 or 384-well plates until confluence, followed by the addition of PBMC (SAg and LPS systems). […] Soluble factors from supernatants are quantified using either HTRF® detection, bead-based multiplex immunoassay or capture ELISA. Overt adverse effects of test agents on cell proliferation and viability (cytotoxicity) are detected by sulforhodamine B (SRB) staining, for adherent cells, and alamarBlue® reduction for cells in suspension. […]

The subject of test [2] is rats with TGFβ1-induced trabecular meshwork fibrosis. Nature of the test: Rodent model of anterior segment fibrosis / ocular hypertension (IC TGFβ1), s.c. LMW-DS 15 mg/kg daily. The class given is in vivo, rat. The note with it: day 28. The method, then:
Before induction of raised IOP, rats were randomly assigned into two groups (for saline vehicle and LMW-DS treatment). Induction of raised IOP was induced as previously described (Hill LJ, et al. Decorin reduces intraocular pressure and retinal ganglion cell loss in rodents through fibrolysis of the scarred trabecular meshwork. Investigative ophthalmology & visual science. 2015; 56(6): 3743-57). At 0 d, a 15° disposable blade was used to make a self-sealing tunnel through the cornea and this access point was employed for all subsequent twice weekly 3.5 µl IC injections of 5 ng/ml TGFβ1 (Peprotech, London, UK), carried out using sterile glass micropipettes (Harvard Apparatus, Kent, UK) over the 28 d experiment. IOP was also measured twice-weekly (immediately prior to the IC injection) throughout the 28 d experiment. […] At 14 d, rats received either subcutaneous injections of 15 mg/kg LMW-DS (Tikomed AB) or an equivalent saline volume, which continued daily for 14 d. OCT measurements of the RFNL were taken at 28 d as a surrogate for RGC density and ocular tissues from both groups were processed for immunohistochemistry to assess levels of TM fibrosis and RGC survival.
Adult 10 week old) male Sprague Dawley rats (Charles River, Kent, UK) were housed with free access to food and water under a 12 h dark/light cycle. Surgery was performed at the Biomedical Services Unit at the University of Birmingham (UK) in accordance with the Home Office guidelines set out in the 1986 Animal Act (UK) and the ARVO Statement for the Use of Animals in Ophthalmic and Vision Research. Intraocular injections, optical coherence tomography and intraocular pressure measurements were all taken whilst rats were under inhaled anesthesia using between 2% - 5% isofluorane / 98% - 95% O2 (National Vet Supplies, UK). The welfare of all rats was monitored closely at all times.
IOP measurements were obtained using an iCare Tonolab (ICare, Helsinki, Finland) calibrated for rats. IOP was recorded twice weekly between 9 am and 11 am throughout the 28 d experiment to avoid confounding circadian variabilities in IOP. Immediately after induction of anesthesia, six rebound measurements were taken with the tonometer from the central cornea and averaged to give a single reading (mmHg). Each graphical data point represents the mean ± SEM of three readings (6 rebounds) taken from each rat sequentially to ensure accurate measurements.
Retinal nerve fiber layer (RNFL) measurements were taken at 28 d using a Spectralis HRA3 confocal scanning laser ophthalmoscope (Heidelberg Engineering, Heidelberg, Germany). Images were obtained from rats whilst under inhalational anesthesia (as described in the ‘Animals and Surgery’ section above). OCT images were taken of the retina around the optic nerve head and in-built software was used to segment images and quantify the RNFL thickness.
Rats were euthanized by an intraperitoneal injection of sodium pentobarbital (National Veterinary Supplies) on 28 d and intracardially perfused with 4% paraformaldehyde (PFA; TAAB, Aldermaston, UK) in PBS whilst under terminal anesthesia. Eyes were removed and immersion fixed in 4% PFA in PBS for 2 hours at room temperature and then cryoprotected using increasing concentrations of (10%, 20% and 30% sucrose) for 24 hours each at 4° C. […]

Regarding sodium salt of dextran sulfate [LMW-DS], the Increased biomarker activity entry in test [1] was “IL-8”. Further, in test [2], the “fibronectin in the TM (immunoreactive)” value was 40.2 ± 4.0%, the “laminin in the TM (immunoreactive)” value is 25.6 ± 3.5%, the “retinal nerve fibre layer (RNFL) thickness (OCT)” value is reported as 59.9 ± 1.2 µm and the “surviving retinal ganglion cells (RGC)” value was determined as 12.6 ± 0.4 RGC/mm. This substance also returned an IOP in test [2] (IC TGFβ1 with SC LMW-DS from day 14) of 11.4 ± 0.2 mmHg.
